Measured values reported in US6531478B2, “Amino pyrazole derivatives useful for the treatment of obesity and other disorders” (priority 2000, dated 2003).

Molecular target: T1, human neuropeptide Y5 receptor (Homo sapiens, UniProt Q15761)
T1 construct: expressed in transfected cells; host or cells: HEK-293, stably transfected, G-418 selected; membranes
T1 sequence (Q15761 1-445): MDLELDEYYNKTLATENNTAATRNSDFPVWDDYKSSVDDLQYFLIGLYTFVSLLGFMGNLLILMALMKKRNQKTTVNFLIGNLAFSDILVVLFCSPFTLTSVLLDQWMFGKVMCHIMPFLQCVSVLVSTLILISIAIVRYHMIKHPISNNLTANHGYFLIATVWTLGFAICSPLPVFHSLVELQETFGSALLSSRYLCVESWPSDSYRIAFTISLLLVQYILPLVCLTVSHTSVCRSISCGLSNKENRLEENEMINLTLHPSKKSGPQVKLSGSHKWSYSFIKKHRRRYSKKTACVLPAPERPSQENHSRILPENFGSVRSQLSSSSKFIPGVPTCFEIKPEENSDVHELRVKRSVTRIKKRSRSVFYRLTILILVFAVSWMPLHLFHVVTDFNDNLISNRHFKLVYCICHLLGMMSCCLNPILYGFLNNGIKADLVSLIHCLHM
Assay: NPY5 HTS centrifugation assay: competition with 125I-PYY for binding to membranes of NPY5-transfected HEK-293 cells
Conditions: inhibition of 125I-PYY binding; for IC50: values in nM, read-out: IC50 hNPY5; for % Inh NPY5 @ 3 μM / inhibition at 3 µM: 3 μM test compound; for inhibition at 3 µM: read-out: % Inh NPY5 @ 3 μM
Experimental: NPY5 HTS Centrifugation Assay
The compounds described in this invention were evaluated for binding to the human neuropeptide Y5 receptor.
The human NPY5 receptor cDNA (Genbank Accession number U66275) was inserted into the vector pClneo (Invitrogen) and transfected into human embryonic kidney cells (HEK-293) via Calcium phosphate method (Cullen 1987). Stably transfected cells were selected with G-418 (600 ug/mL). Stably transfected cells served as the source for the membranes for the NPY5 receptor binding assay.
NPY5-transfected HEK293 cells were grown to confluence in 150 cm^2 culture dishes. Cells were washed once with phosphate-buffered saline (Gibco Cat# 14040-133). Cells were then incubated in phosphate-buffered saline without Calcium and without Magnesium, supplemented with 2 mM EDTA. Cells were incubated for 10 minutes at room temperature and the cells were collected by repetitive pipetting. Cells were formed into pellets and frozen at −80 until needed. Frozen pellets were homogenized with a polytron at full speed for 12 seconds in a homogenization buffer (20 mM Tris HCl, 5 mM EDTA, pH 7.4). Homogenates were centrifuged for 5 minutes at 4° C. at 200 g. Supernatants were transferred to corex tubes and centrifuged for 25 minutes at 28,000 g. Pellets were re-suspended in Binding (20 mM HEPES, 10 mM NaCl, 0.22 mM KH2PO4, 1.3 mM CaCl2, 0.8 mM MgSO4, pH 7.4). Membranes were kept on ice until use.
A competition binding assay, known to those skilled in the art, was used in which the test compounds (aminopyrazoles of formula (I) compete with ^1251I-PYY for binding to cell membranes. In simple terms, less ^125I-PYY bound to the membranes implies that the test compound is a good inhibitor (competitor). Bound ^1251I-PYY is determined by centrifugation the membranes, aspirating supernatant, washing away residual ^125I-PYY and subsequently counting the bound sample in a γ-counter.
Procedure for Radioligand Binding Assay
Compounds to be tested were prepared as 10× stocks in binding buffer and added first to assay tubes (RIA vials, Sarstedt). Twenty (20) μL of each 10× compound stock was pipetted into vials and 80 μL of ^125I-PYY (NEN catalog number NEX240), which had been diluted to a concentration of 200 pM in 0.25% BSA in binding buffer, was added to the compound tubes (final concentration of ^125I-PYY is 80 pM). To each tube was added 100 μL of membranes and the mixture was agitated by pipetting 2 times. Samples were incubated for 1 hr at room temperature. Aluminum cast plates (Sarstedt) containing the vials were centrifuged 10 minutes at 3200 rpm in a Sorvall RT6000. Supernatant was then aspirated. To each vial was added 400 μL PBS and the vial was then aspirated again. Vials were put in carrier polypropylene 12×75 tube and counted in gamma counter (Packard). Non-specific binding was determined in the presence of 300 nM NPY. Percent inhibition of ^125I-PYY binding was calculated by subtracting non-specific binding from the test samples (compounds of formula (I)), taking these counts and dividing by total binding, and multiplying by 100. Inhibitory concentration values (IC50) of compounds that show appreciable inhibition of ^125I-PYY binding were calculated by obtaining percent inhibition of ^125I-PYY binding values at different concentrations of the test compound, and using a graphing program such as GraphPad Prism (San Diego, Calif.) to calculate the concentration of test compound that inhibits fifty-percent of ^125I-PYY binding (Table 2). These operations are known to those skilled in the art.

| SMILES | IC50 [nM] | % Inh NPY5 @ 3 μM [%] | other results |
| --- | --- | --- | --- |
| Cc1ccc(-n2nc(-c3ccc(NS(=O)(=O)c4ccc(C)cc4)cc3)cc2N)cc1 [Cmpd 31] | 28 |  |  |
| COC(=O)c1ccc(-c2cc(N)n(-c3ccccc3)n2)cc1 [Cmpd 7] |  | 13.00 |  |
| Cc1ccc(-n2nc(-c3ccc(N(S(=O)(=O)c4ccc5ccccc5c4)S(=O)(=O)c4ccc5ccccc5c4)cc3)cc2N)cc1 [Cmpd 27] |  | 0.00 |  |
| COC(=O)c1ccc(-c2cc(N(S(=O)(=O)c3ccccc3)S(=O)(=O)c3ccccc3)n(-c3ccccc3)n2)cc1 [Cmpd 8] |  | 0 |  |
| COc1ccc(S(=O)(=O)Nc2ccc(-c3cc(N)n(-c4ccc(C)cc4)n3)cc2)cc1 [Cmpd 36] | 15 |  | inhibition at 3 µM: 100% |
| O=C(c1ccc(-c2cc(NS(=O)(=O)c3ccccc3)n(-c3ccccc3)n2)cc1)N1CCCc2ccccc21 [Cmpd 14] |  |  | % Inh NPY5 @ 30 μM (30 μM test compound (stated in cell)): (26.00 @ % |
| O=C(Nc1ccc2ccccc2c1)c1ccc(-c2cc(NS(=O)(=O)c3ccccc3)n(-c3ccccc3)n2)cc1 [Cmpd 12] |  | 2.00 |  |
| Cc1ccc(-n2nc(-c3ccc(NS(=O)(=O)c4ccc(OC(F)(F)F)cc4)cc3)cc2N)cc1 [Cmpd 42] | 67 |  | inhibition at 3 µM: 94% |
| Cc1ccc(-n2nc(-c3ccc(NS(=O)(=O)c4cccc5ccccc45)cc3)cc2N)cc1 [Cmpd 44] |  | 72.00 |  |
| Cc1ccc(-n2nc(-c3ccc(N(S(=O)(=O)c4ccccc4)S(=O)(=O)c4ccccc4)cc3)cc2N)cc1 [Cmpd 22, N-[4-[5-amino-1(4-methylphenyl)-1H-pyrazol-3-yl]phenyl]-N-(phenylsulfonyl)-benzenesulfonamide] | 514 |  |  |
| Nc1cc(-c2ccc(N(S(=O)(=O)c3cccc(C(F)(F)F)c3)S(=O)(=O)c3cccc(C(F)(F)F)c3)cc2)nn1-c1ccccn1 [Cmpd 58] |  | 0.00 |  |
| Cc1ccc(-n2nc(-c3ccc(NS(=O)(=O)c4ccc5ccccc5c4)cc3)cc2N)cc1 [Cmpd 45] | 208 |  | inhibition at 3 µM: 90% |
| Cc1ccc(-n2nc(-c3ccc(C(=O)Nc4ccc(F)cc4)cc3)cc2NS(=O)(=O)c2ccc(C)cc2)cc1 [Cmpd 16] |  | 1.00 |  |
| COc1ccc(S(=O)(=O)Nc2ccc(-c3cc(N)n(-c4cccc5ccccc45)n3)cc2)cc1 [Cmpd 49] | 48 |  |  |
| Cc1ccc(-n2nc(-c3ccc(C(=O)Nc4ccccc4)cc3)cc2NS(=O)(=O)c2ccc(C)cc2)cc1 [Cmpd 15] |  | 4.00 |  |
| COc1ccc(S(=O)(=O)Nc2ccc(-c3cc(N)n(-c4ccccn4)n3)cc2)cc1 [Cmpd 54] | 436 |  |  |
| COC(=O)c1ccc(-c2cc(N(S(=O)(=O)c3ccc(C)cc3)S(=O)(=O)c3ccc(C)cc3)n(-c3ccc(C)cc3)n2)cc1 [Cmpd 20] |  | 0.00 |  |
| O=C(Nc1ccc(F)cc1)c1ccc(-c2cc(NS(=O)(=O)c3ccccc3)n(-c3ccccc3)n2)cc1 [Cmpd 5] |  | 0.00 |  |
| Cc1ccc(-n2nc(-c3ccc(N(S(=O)(=O)c4ccc(OC(F)(F)F)cc4)S(=O)(=O)c4ccc(OC(F)(F)F)cc4)cc3)cc2N)cc1 [Cmpd 29] |  | 16.00 |  |
| COc1ccc(S(=O)(=O)Nc2ccc(-c3cc(N)n(-c4ccc(C)cc4)n3)cc2)cc1OC [Cmpd 48] | 839 |  | inhibition at 3 µM: 76% |
| Cc1ccc(-n2nc(-c3ccc(NS(=O)(=O)c4cccc(C(F)(F)F)c4)cc3)cc2N)cc1 [Cmpd 39] | 31 |  | inhibition at 3 µM: 95% |
| Cc1ccc(-n2nc(-c3ccc(N(S(=O)(=O)c4cc(C(F)(F)F)cc(C(F)(F)F)c4)S(=O)(=O)c4cc(C(F)(F)F)cc(C(F)(F)F)c4)cc3)cc2N)cc1 [Cmpd 40] |  | 16.00 |  |
| Cc1ccc(-n2nc(-c3ccc(C(=O)O)cc3)cc2N)cc1 [Cmpd 32] |  | 0.00 |  |
| Cc1ccc(NC(=O)c2ccc(-c3cc(NS(=O)(=O)c4ccc(C)cc4)n(-c4ccc(C)cc4)n3)cc2)cc1 [Cmpd 17] |  | 6.00 |  |
| COC(=O)c1ccc(-c2cc(NS(=O)(=O)c3ccccc3)n(-c3ccccc3)n2)cc1 [Cmpd 18] |  | 2.00 |  |
| COC(=O)c1ccc(-c2cc(N)n(-c3ccc(C)cc3)n2)cc1 [Cmpd 19] |  | 2.00 |  |

Further lines, with some results ahead:

| IC50 [nM] | % Inh NPY5 @ 3 μM [%] | SMILES | other results |
| --- | --- | --- | --- |
| 40 |  | CNc1ccc(S(=O)(=O)Nc2ccc(-c3cc(NC)n(-c4ccc(C)cc4)n3)cc2)cc1 [Cmpd 75, 4-(methylamino)-N-[4-[5-(methylamino)-1-(4-methylphenyl)-1H-pyrazol-3-yl]phenyl]-benzensulfonamide] |  |
| 487 |  | CNc1cc(-c2ccc(NS(=O)(=O)c3ccc(N(C)C)cc3)cc2)nn1-c1ccc(C)cc1 [Cmpd 74] |  |
| 20 |  | Nc1ccccc1S(=O)(=O)NCC1CCC(c2cc(N)n(-c3cccc(C(F)(F)F)c3)n2)CC1 (stereo not shown) [Cmpd 83] |  |
| 243 |  | Cc1ccc(-n2nc([C@H]3CC[C@H](CNS(=O)(=O)c4ccc5ccccc5c4)CC3)cc2N)cc1 [Cmpd 77, trans-N-[[4-[5-Amino-1-[4-tolyl]-1H-pyrazol-3-yl]cyclohexyl]methyl]-2-naphthylsulfonamide] |  |
| 22 |  | CN(C)c1cccc(-n2nc(-c3ccc(NS(=O)(=O)c4ccccc4)cc3)cc2N)c1 [Cmpd 88] |  |
|  | 85.00 | COc1ccc(S(=O)(=O)Nc2cccc(-c3cc(N)n(-c4ccc(C)cc4)n3)c2)cc1 [Cmpd 67] |  |
| 169 |  | Cc1ccc(-n2nc(-c3cccc(NS(=O)(=O)c4ccccc4)c3)cc2N)cc1 [Cmpd 68] |  |
| 145 |  | Cc1ccc(-n2nc(-c3ccc(NS(=O)(=O)c4cccc(N(C)C)c4)cc3)cc2N)cc1 [Cmpd 81] |  |
| 38 |  | Nc1cc(-c2ccc(NS(=O)(=O)c3ccccc3)cc2)nn1-c1ccccc1 [Cmpd 93] |  |
| 21 |  | Cc1ccc(-n2nc(-c3ccc(NS(=O)(=O)c4cccc([N+](=O)[O-])c4)cc3)cc2N)cc1 [Cmpd 62] |  |
| 229 |  | Cc1ccc(-n2nc(-c3ccc(NS(=O)(=O)c4ccccc4N)cc3)cc2N)cc1 [Cmpd 64] |  |
| 30 |  | COc1ccc(S(=O)(=O)Nc2ccc(-c3cc(N)n(-c4cccc(N(C)C)c4)n3)cc2)cc1 [Cmpd 87] |  |
| 37 |  | COc1ccc(S(=O)(=O)Nc2ccc(-c3cc(N)n(-c4cccc(C)c4)n3)cc2)cc1 [Cmpd 71] |  |
| 162 |  | Cc1ccc(-n2nc(-c3ccc(NS(=O)(=O)c4ccc(N(C)C)cc4)cc3)cc2N)cc1 [Cmpd 76] |  |
| 38 |  | Cc1cccc(-n2nc(-c3ccc(NS(=O)(=O)c4ccccc4)cc3)cc2N)c1 [Cmpd 72] |  |
|  | 0.00 | Nc1cc(-c2ccc(N(S(=O)(=O)c3ccc(F)cc3)S(=O)(=O)c3ccc(F)cc3)cc2)nn1-c1ccccn1 [Cmpd 59] |  |
| 709 |  | COc1ccc(S(=O)(=O)Nc2ccc(-c3cc(N)n(-c4nccc(C(F)(F)F)n4)n3)cc2)cc1 [Cmpd 86] |  |
| 23 |  | Cc1cccc(-n2nc(-c3ccc(NS(=O)(=O)c4cccc(C(F)(F)F)c4)cc3)cc2N)c1 [Cmpd 73] |  |
| 28 |  | Nc1cc(-c2ccc(NS(=O)(=O)c3ccccc3)cc2)nn1-c1ccc(F)cc1 [Cmpd 92] |  |
| 37 |  | COc1ccc(S(=O)(=O)Nc2ccc(-c3cc(N)n(-c4ccc(F)cc4)n3)cc2)cc1 [Cmpd 91] |  |
| 100 |  | COc1ccc(S(=O)(=O)Nc2ccc(-c3cc(N)n(-c4ccccc4)n3)cc2)cc1 [Cmpd 84] |  |
